Measured values as given in patent US20250313528A1, “NOVEL COMPOUND AND PHARMACEUTICAL COMPOSITION FOR PREVENTING OR TREATING PULMONARY FIBROSIS COMPRISING SAME AS ACTIVE INGREDIENT” (GIL MEDICAL CENTER, priority 2022, published 2025).

What was measured:
[1] = tested on: fibronectin and α-SMA; assay: Western blotting of fibrosis-related proteins in TGF-β1-induced MRC-5 cells; type: cell-based, human; conditions: for expression of fibronectin and α-SMA by concentration: MRC-5 + TGF-β1, Compound 1 at 5, 10, 20 μM, Compound 2 at 2.5, 5, 10 μM, FIG. 3; for expression levels of fibronectin and α-SMA protein: MRC-5, TGF-β1 1 ng/ml, 10 μM, FIG. 4b; for expression levels of fibronectin and α-SMA: MRC-5 induced by TGF-β1, screen of sulforaphane compounds, FIG. 2
Procedure: Since the overexpression of extracellular matrix components such as fibronectin and α-SMA serves as an indicator of fibrotic changes in tissues, MRC-5 cells induced to undergo fibrosis by TGF-β1 were treated with each compound at different concentrations to compare the expression levels of fibronectin and α-SMA.
Specifically, to extract fibronectin and α-SMA proteins, the cells were washed once with cold PBS and then RIPA buffer (150 mM NaCl, 0.5% Triton X-100, 50 mM Tris-HCl, pH 7.4, 25 mM NaF, 20 mM EGTA), which was added with a protease inhibitor cocktail, was added thereto to lyse the cells. Then, the proteins were quantified using a BCA protein assay kit. All protein samples were subjected to electrophoresis at 10 μg on 8% to 10% PAGE gels and then transferred to 0.2 μm PVDF membranes (EMD Millipore, MA, USA). The membranes to which the protein was transferred were blocked with 5% BSA or 5% skim milk for 1 hour, and then primary antibodies were added thereto and incubated overnight at 4° C. The following day, the membranes were washed three times with PBST, and then HRP-conjugated secondary antibodies were added and reacted at room temperature for 1 hour. The PVDF membranes prepared through such procedures were smeared with ECL (Luminata™ Crescendo, EMD Millipore) and exposed to a fluorescence reader to confirm the level of protein expression.
The specific experimental methods are the same as in Example 2, and sulforaphane was treated at a concentration of 20 μM, Compound 1 at 5 μM, 10 μM, and 20 μM, and Compound 2 at 2.5 μM, 5 μM, and 10 μM, respectively.
To compare the changes in fibrosis-related protein expression by treating normal MRC-5 and diseased DHLF-IPF cell lines induced with pulmonary fibrosis by TGF-β1 with SFN and the two candidate compounds, Western blotting was performed.
The specific experimental methods are the same as in Example 2. TGF-β1 was treated at 1 ng/ml to induce fibrosis, and sulforaphane and the two compounds each were treated at a concentration of 10 μM.

[2] = tested on: DHLF-IPF cells; assay: Wound healing assay, DHLF-IPF; type: cell-based, human; conditions: TGF-β1 treatment, 24 hours, FIG. 6
Procedure: The effects of Compound 1 and Compound 2, selected in Example 3, on cell migration (wound healing) in MRC-5 and DHLF-IPF cells were examined.
Specifically, cells (1×10^5 cells/well) were seeded in a 60 mm dish to achieve approximately 90% confluency and cultured for 24 hours. Subsequently, a straight line was scratched on the bottom with a 200 μL pipette tip, and the detached cells were removed by washing once with Dulbecco's Phosphate-Buffered Saline (DPBS). The wound was photographed under a microscope, and treatments with TGF-β1 alone, TGF-β1+SFN, TGF-β1+GSF-016, and TGF-1+GSF-018 were applied and cultured for approximately 24 hours, after which the wound was re-photographed. The images taken at 24 hours of culture were analyzed using the Image J (Fiji package) software to measure the distance between cells, and the relative migration was expressed as a percentage (%) compared to the control group.

[3] = tested on: bleomycin (BLM)-induced pulmonary fibrosis animal models; assay: Body weight and lung weight in bleomycin-induced pulmonary fibrosis animal model; type: in vivo, C57BL/6N mice; conditions: BLM mice; for body weight gain during the experimental period: three times a week for three weeks; for lung weight: end of the experiment, vs normal group and BLM group
Procedure: The inhibitory effects of the finally selected Compound 1 and Compound 2 on pulmonary fibrosis were examined in bleomycin (BLM)-induced pulmonary fibrosis animal models.
(§1) Specifically, 7-week-old C57BL/6N mice were exposed to BLM (3-5 units/kg) via the airway. The compounds were administered orally at doses of 200 μg/kg and 500 μg/kg for Compound 1, and 100 μg/kg and 200 μg/kg for Compound 2, three times a week for three weeks starting the day after BLM exposure. Body weight gain was periodically measured during the experimental period, and lung weight was measured at the end of the experiment.

[4] = tested on: bleomycin (BLM)-induced pulmonary fibrosis animal models; assay: Hydroxyproline quantification in lung tissue of BLM model; type: in vivo, C57BL/6N mice; conditions: BLM mice, compared to the BLM group
Procedure: as §1
Specifically, homogenized lung tissue was placed in 1.5 mL tubes in similar amounts to prevent thawing, and 100 μL of 12 M hydrochloric acid was added for hydrolysis at 120° C. for 3 hours. After centrifugation at 10,000×g for 5 minutes, the supernatant was transferred to a new tube, and 10 μL of the sample was transferred to a 96-well plate and evaporated at 60° C. Subsequently, 100 μL of chloramine T reagent/oxidation buffer mixture was added to each well, followed by 100 μL of para-dimethylaminobenzaldehyde reagent, and reacted at 60° C. for 90 minutes. Absorbance was measured at 540 nm, and the content was determined using a standard calibration curve prepared in the same manner.

[5] = tested on: bleomycin (BLM)-induced pulmonary fibrosis animal models; assay: H&E and Masson-trichrome histological evaluation of lung, BLM model; type: in vivo, C57BL/6N mice; conditions: BLM mice; for degree of fibrosis in the lung tissue: compared to the BLM group; for inflammation in lung tissue (H&E): both doses (Compound 1 200 and 500 μg/kg; Compound 2 100 and 200 μg/kg)
Procedure: as §1
To observe changes in lung tissue, Hematoxylin and Eosin (H&E) staining and Masson-trichrome staining were performed on lung tissue samples to assess the degree of inflammation and fibrosis.
Specifically, the excised lung tissue was embedded in paraffin and sectioned into 4 μm slices using a microtome. These tissue sections were used for H&E, MT stain, and Immunohistochemistry (IHC). Each experiment was conducted by deparaffinizing and rehydrating the sections using xylene and ethanol. For IHC, the LSAB2 system HRP (DAKO, Carpinteria, CA, USA) kit was used. Antibody retrieval was performed in 0.1 mM citric acid (pH 6), and the experiment was conducted according to the provided instructions. The sections were blocked with blocking buffer at room temperature for 1 hour, then incubated overnight at 4° C. with primary antibodies (fibronectin, collagen 1, α-SMA). After blocking with secondary antibodies at room temperature for 1 hour, the Streptavidin-HRP system was used for 10 minutes, followed by exposure to DAB solution, hematoxylin staining, dehydration, clearing, and mounting with Canada balsam. The stained slides were examined under an optical microscope (BK51, Olympus, Japan). The staining results were quantified using the Image J program.

CCOC(=O)C(CSC(=S)NCCCC[S+](C)[O-])NC(C)=O (centres unmarked) [Compound 1]
expression of fibronectin and α-SMA by concentration [1]: decreased in a concentration-dependent manner | expression levels of fibronectin and α-SMA protein [1]: significantly reducing the expression levels compared to sulforaphane | expression levels of fibronectin and α-SMA [1]: significantly decreased | cell migration (wound healing) [2]: significantly inhibited in a dose-dependent manner | body weight gain during the experimental period ([3]; 200 μg/kg orally): steady increase | body weight gain during the experimental period ([3]; 500 μg/kg orally): initially decreased and then gradually increased | hydroxyproline content in lung tissue ([4]; 200 μg/kg orally): reduced | degree of fibrosis in the lung tissue ([5]; 200 μg/kg): significantly reduced | degree of fibrosis in the lung tissue ([5]; 500 μg/kg): significantly reduced | inflammation in lung tissue (H&E) [5]: significant reduction in inflammation regardless of concentration

C=CCOC(=O)C(CSC(=S)NCCCC[S+](C)[O-])NC(C)=O (centres unmarked) [Compound 2]
expression of fibronectin and α-SMA by concentration [1]: decreased in a concentration-dependent manner | expression levels of fibronectin and α-SMA protein [1]: significantly reducing the expression levels compared to sulforaphane | expression levels of fibronectin and α-SMA [1]: significantly decreased | cell migration (wound healing) [2]: significantly inhibited in a dose-dependent manner | lung weight ([3]; 100 μg/kg orally): similarly lower levels | body weight gain during the experimental period ([3]; 100 μg/kg orally): steady increase in body weight, approaching levels similar to the normal group | lung weight ([3]; 200 μg/kg orally): similarly lower levels | body weight gain during the experimental period ([3]; 200 μg/kg orally): steady increase in body weight, approaching levels similar to the normal group | hydroxyproline content in lung tissue ([4]; 100 μg/kg orally): significant reductions | hydroxyproline content in lung tissue ([4]; 200 μg/kg orally): significant reductions | degree of fibrosis in the lung tissue ([5]; 100 μg/kg): significantly reduced | degree of fibrosis in the lung tissue ([5]; 200 μg/kg): significantly reduced | inflammation in lung tissue (H&E) [5]: significant reduction in inflammation at both concentrations
